Patent US20230357179A1, “RAF KINASE INHIBITORS AND METHODS OF USE THEREOF” (Deciphera Pharmaceuticals, LLC, priority 2021, published 2023)

What was measured:
A-Raf kinase = target: T1, A-Raf kinase (Homo sapiens, UniProt P10398, Y301D/Y302D); experiment: Biochemical assay for A-Raf.1 (coupled pyruvate kinase/lactate dehydrogenase); conditions: read-out: ARAF.1 IC50
T1 construct: purchased Sigma
In short: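 IC50 values came from four-parameter sigmoidal fits of percent inhibition, using rates over the 4 to 5 h window of continuous A340 readings (6 h, 30° C). The coupled PK/LDH system tracked NADH oxidation during 5.55 nM A-Raf activity on 30.1 nM MEK at 1 mM ATP, buffer pH 7.5.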

B-Raf kinase = target: T2, B-Raf kinase (Homo sapiens, UniProt P15056); experiment: Biochemical assay for B-Raf.1 (coupled pyruvate kinase/lactate dehydrogenase); conditions: read-out: BRAF.1 IC50
T2 construct: GST (N); purchased Sigma
T2 sequence (P15056 416-766): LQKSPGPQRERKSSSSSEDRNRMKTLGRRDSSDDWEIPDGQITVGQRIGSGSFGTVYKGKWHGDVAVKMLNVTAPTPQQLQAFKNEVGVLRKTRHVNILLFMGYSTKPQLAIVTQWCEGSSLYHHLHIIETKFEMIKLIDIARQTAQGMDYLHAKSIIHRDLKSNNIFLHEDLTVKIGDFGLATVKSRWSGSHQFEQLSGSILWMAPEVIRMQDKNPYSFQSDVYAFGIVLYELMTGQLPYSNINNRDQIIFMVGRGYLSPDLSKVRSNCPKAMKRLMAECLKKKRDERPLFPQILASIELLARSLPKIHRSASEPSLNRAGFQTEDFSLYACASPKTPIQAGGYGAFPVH
In short: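 Reaction rates over the 4–5 h window of a continuous 6 h, 30 °C read were converted to percent inhibition and fitted for IC50. B-Raf (0.13 nM) phosphorylated 30.1 nM MEK with 1 mM ATP; ADP coupled via PK/LDH to NADH loss at 340 nm, 1% DMSO final.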

B-Raf (V600E) kinase = target: T3, B-Raf (V600E) kinase (Homo sapiens, UniProt P15056, V600E); experiment: Biochemical assay for B-Raf (V600E).1 (coupled pyruvate kinase/lactate dehydrogenase); conditions: read-out: BRAF V600E.1 IC50
T3 construct: B-Raf (V600E) residues 416-766 with a; GST (N); purchased SignalChem
T3 sequence (P15056 416-766 V600E): as the sequence (P15056 416-766) above, with V185E counted along it
In short: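 IC50 came from four-parameter sigmoidal fits of percent inhibition, using reaction rates over 3-4 h. Continuous A340 reading (6 h, 30 °C) of a pyruvate kinase/lactate dehydrogenase-coupled reaction: B-Raf V600E 0.03 nM, MEK 30.1 nM, ATP 1 mM, Tris pH 7.5, 1% DMSO.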

H2405 cells = experiment: H2405 cell proliferation assay (1), resazurin, 96-well; type: cell-based; conditions: Homo sapiens, NCI-H2405, inhibition of cell proliferation
Description: H2405 Cell Proliferation Assay (1)
H2405 cells (catalog #CRL-5944) are obtained from the American Type Culture Collect (ATTC, Manassas, VA). Briefly, cells were grown in RPMI 1640 supplemented with 5% characterized fetal bovine serum (Invitrogen, Carlsbad, CA) and 1% Penicillin/Streptomycin/L-Glutamine at 37° C., 5% CO2, and 95% humidity. Cells are expanded until reaching 70-95% confluency at which point they are subcultured or harvested for assay use. A serial dilution of test compound is dispensed into a 96-well black clear bottom plate in triplicate. Three thousand cells are added per well in 200 μL complete growth medium in the 96-well plate. Plates are incubated for 67-72 hours at 37° C., 5% CO2, and 95% humidity. At the end of the incubation, 40 μL of a 440 μM solution of resazurin (Sigma, St. Louis, MO) in PBS is added to each well of the plate and plates are incubated for an additional 5-6 hours at 37° C., 5% CO2, and 95% humidity. Plates are read on a Synergy2 or equivalent reader (Biotek, Winooski VT) using an excitation of 540 nm and an emission of 600 nm. Data is analyzed using Prism software (GraphPad, San Diego, CA) to calculate IC50 values.

T1 sequence (P10398 with tags, fused parts or gaps Y301D/Y302D): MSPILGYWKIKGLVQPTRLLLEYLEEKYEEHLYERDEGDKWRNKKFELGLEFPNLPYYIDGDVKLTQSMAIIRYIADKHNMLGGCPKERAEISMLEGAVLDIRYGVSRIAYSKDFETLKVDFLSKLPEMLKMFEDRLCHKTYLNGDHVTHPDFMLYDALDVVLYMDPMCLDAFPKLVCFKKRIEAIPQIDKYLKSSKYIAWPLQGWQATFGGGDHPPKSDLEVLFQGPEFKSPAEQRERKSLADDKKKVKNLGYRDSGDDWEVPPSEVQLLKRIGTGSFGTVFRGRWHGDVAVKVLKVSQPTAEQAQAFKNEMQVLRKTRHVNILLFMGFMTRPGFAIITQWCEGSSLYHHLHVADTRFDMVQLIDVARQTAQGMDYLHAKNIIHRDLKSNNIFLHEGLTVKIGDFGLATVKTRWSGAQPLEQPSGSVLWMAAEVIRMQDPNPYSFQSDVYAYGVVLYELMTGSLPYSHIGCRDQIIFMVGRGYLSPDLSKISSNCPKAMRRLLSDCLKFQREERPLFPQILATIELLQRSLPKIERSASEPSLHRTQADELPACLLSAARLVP

Structure (SMILES) | IC50 (A-Raf kinase) [nM] | IC50 (B-Raf kinase) [nM] | IC50 (B-Raf (V600E) kinase) [nM] | IC50 (H2405 cells) [nM]
COC(=O)Nc1cc(-c2cc(-c3cc(NC(=O)NCCC(C)C)c(F)cc3C)cc(OCCO)n2)ccn1 [Example 115] | > 1000 | ≤ 100 | ≤ 100 | 500 to 1000
Cc1ncc(NC(=O)NCCC2(C)CC2)cc1-c1cc(OCCO)nc(-c2ccnc(NC(=O)C3CC3)c2)n1 [Example 133] | 500 to 1000 | ≤ 100 | ≤ 100 | 500 to 1000
COC(=O)Nc1cc(-c2nccc(-c3cc(NC(=O)NCCC4(OC)CC4)cnc3C)n2)ccn1 [Example 143] | > 1000 | 500 to 1000 | ≤ 100 | 1000 to 10000
Cc1cc(F)c(NC(=O)NCCC(C)C)cc1-c1cc(OCCO)nc(-c2ccnc(NC(=O)C3CC3)c2)c1 [Example 106] | > 1000 | ≤ 100 | ≤ 100 | 100 to 500
COC[C@@H]1CCN(C(=O)Nc2cnc(C)c(-c3cc(OCCO)nc(-c4ccnc(NC(=O)OC)c4)c3)c2)C1 [Example 160] | > 1000 | 100 to 500 | ≤ 100 | 1000 to 10000
COC1(CCNC(=O)Nc2cc(-c3cccc(-c4cc(NC(=O)C5CC5)ncn4)c3)c(C)cc2F)CC1 [Example 104] | 100 to 500 | ≤ 100 | ≤ 100 | 100 to 500
COC(=O)Nc1cc(-c2cnnc(-c3cc(NC(=O)NCCC(C)(C)OC)cnc3C)c2)ccn1 [Example 153] | > 1000 | 500 to 1000 | ≤ 100 | 1000 to 10000
Cc1cc(F)c(NC(=O)NCCC(C)(C)F)cc1-c1ccnc(-c2ccnc(NC(=O)C3CC3)c2)c1 [Example 159] | 500 to 1000 | ≤ 100 | ≤ 100 | 100 to 500
CNC(=O)c1cc(-c2cnnc(-c3cc(NC(=O)NCCC(C)(C)C)c(F)cc3C)c2)ccn1 [Example 119] | > 1000 | 100 to 500 | ≤ 100 | 1000 to 10000
COC(=O)Nc1cc(-c2cc(-c3cc(NC(=O)NCCC4(C)CC4)cnc3C)cc(OCCO)n2)ccn1 [Example 151] | > 1000 | ≤ 100 | ≤ 100 | 100 to 500
COC(=O)Nc1cc(-c2nc(OCCO)cc(-c3cc(NC(=O)NCCC(C)(C)F)c(F)cc3C)n2)ccn1 [Example 161] | > 1000 | ≤ 100 | ≤ 100 | ≤ 100
Cc1cc(F)c(NC(=O)NCCC(C)(C)C)cc1-c1cc(N2CCOCC2)nc(N2CCOCC2)c1 [Example 10] | > 1000 | ≤ 100 | ≤ 100 | 500 to 1000
COC(=O)Nc1cc(-c2cc(-c3cc(NC(=O)NCCN4CCC4)c(F)cc3C)cc(OCCO)n2)ccn1 [Example 125] | > 1000 | > 1000 | 100 to 500 | 1000 to 10000
COC(=O)Nc1cc(-c2cc(-c3cc(NC(=O)NCCC4COC4)c(F)cc3C)cc(OCCO)n2)ccn1 [Example 155] | > 1000 | ≤ 100 | ≤ 100 | 1000 to 10000
Cc1cc(F)c(NC(=O)NCC23CC(F)(C2)C3)cc1-c1cc(OCCO)nc(-c2ccnc3[nH]ncc23)c1 [Example 111] | > 1000 | ≤ 100 | ≤ 100 | 1000 to 10000
COC(=O)Nc1cc(-c2cc(-c3cc(NC(=O)N[C@H]4C[C@](C)(F)C4)cnc3C)cc(OCCO)n2)ccn1 [Example 157] | > 1000 | ≤ 100 | ≤ 100 | 1000 to 10000
Cc1cc(F)c(NC(=O)NCCC(C)(C)F)cc1-c1nccc(-c2ccnc(NC(=O)C3CC3)c2)n1 [Example 114] | 100 to 500 | ≤ 100 | ≤ 100 | 500 to 1000
Cc1cc(F)c(NC(=O)NCCC(C)(C)C)cc1-c1cc(OCCO)nc(C2=CCOCC2)c1 [Example 7] | > 1000 | ≤ 100 | ≤ 100 | ≤ 100
Cc1ncc(NC(=O)NCCN2CCC2)cc1-c1cc(OCCO)nc(-c2ccnc(NC(=O)C3CC3)c2)c1 [Example 172] | > 1000 | > 1000 | 100 to 500 | 1000 to 10000

Structure (SMILES) | IC50 (A-Raf kinase) [nM] | IC50 (B-Raf kinase) [nM] | IC50 (B-Raf (V600E) kinase) [nM] | IC50 (H2405 cells) [nM]
Cc1cc(F)c(NC(=O)NC2CC3(COC3)C2)cc1-c1cc(OCCO)nc(-c2ccnc3[nH]ncc23)c1 [Example 101] | > 1000 | 100 to 500 | ≤ 100 | 1000 to 10000
COC(=O)Nc1cc(-c2cnnc(-c3cc(NC(=O)N4CCC(CC(F)(F)F)C4)c(F)cc3C)c2)ccn1 (centres unmarked) [Example 150] | > 1000 | ≤ 100 | ≤ 100 | 500 to 1000
COC(=O)Nc1cc(-c2cccc(-c3cc(NC(=O)NCCC4(C)CC4)cnc3C)c2)ncn1 [Example 170] | > 1000 | ≤ 100 | ≤ 100 | 100 to 500
CNC(=O)c1cc(-c2cc(-c3cc(NC(=O)NCCC4(C)CC4)c(F)cc3C)cc(OCCO)n2)ccn1 [Example 164] | > 1000 | ≤ 100 | ≤ 100 | 100 to 500
Cc1ncc(NC(=O)NC2CC(C)(C)C2)cc1-c1cc(OCCO)nc(-c2ccnc(NC(=O)C3CC3)c2)c1 [Example 126] | 500 to 1000 | ≤ 100 | ≤ 100 | 500 to 1000
COC(=O)Nc1cc(-c2cc(-c3cc(NC(=O)NCCC4(OC)CC4)c(F)cc3C)ccn2)ccn1 [Example 145] | > 1000 | ≤ 100 | ≤ 100 | 500 to 1000
COC(=O)Nc1cc(-c2cc(-c3cc(NC(=O)N4CCC(C)(C)CC4)cnc3C)cc(OCCO)n2)ccn1 [Example 166] | > 1000 | 100 to 500 | ≤ 100 | 500 to 1000
Cc1ncc(NC(=O)NCCC(C)(C)F)cc1-c1nccc(-c2ccnc(NC(=O)C3CC3)c2)n1 [Example 130] | > 1000 | 100 to 500 | ≤ 100 | 1000 to 10000
COC(C)(C)CCNC(=O)Nc1cc(-c2ccnc(-c3ccnc(NC(=O)C4CC4)c3)n2)c(C)cc1F [Example 108] | 100 to 500 | ≤ 100 | ≤ 100 | 100 to 500
Cc1cc(F)c(NC(=O)NC2CC(C)(C)C2)cc1-c1cc(OCCO)nc(-c2ccnc(NC(=O)C3CC3)c2)n1 [Example 167] | 500 to 1000 | ≤ 100 | ≤ 100 | ≤ 100
Cc1cc(F)c(NC(=O)NCCC(C)(C)F)cc1-c1cc(OCCO)nc(-c2ccnc3[nH]ncc23)c1 [Example 94] | > 1000 | ≤ 100 | ≤ 100 | 100 to 500
COC(=O)Nc1cc(-c2cc(-c3cc(NC(=O)NC4CC(C)(C)C4)cnc3C)cc(OCCO)n2)ccn1 [Example 156] | > 1000 | ≤ 100 | ≤ 100 | 100 to 500
Cc1cc(F)c(NC(=O)NCCC2(C)CC2)cc1-c1ccnc(-c2ccnc(NC(=O)C3CC3)c2)c1 [Example 134] | 500 to 1000 | ≤ 100 | ≤ 100 | 500 to 1000
COC(C)(C)CCNC(=O)Nc1cc(-c2ccnc(-c3ccnc(NC(=O)C4CC4)c3)c2)c(F)cc1F [Example 162] | > 1000 | ≤ 100 | ≤ 100 | 1000 to 10000
COC(=O)Nc1cc(-c2cnnc(-c3cc(NC(=O)NCCC(C)(C)F)c(F)cc3C)c2)ccn1 [Example 141] | > 1000 | ≤ 100 | ≤ 100 | 1000 to 10000
Cc1cc(F)c(NC(=O)NCCC(C)(C)F)cc1-c1cc(OCCO)nc(-c2ccnc3[nH]ccc23)c1 [Example 97] | > 1000 | ≤ 100 | ≤ 100 | 500 to 1000
COC(=O)Nc1cc(-c2cc(-c3cc(NC(=O)NCCC4(C)CC4)cnc3C)ccn2)ccn1 [Example 103] | > 1000 | ≤ 100 | ≤ 100 | 1000 to 10000
COC[C@H]1CCN(C(=O)Nc2cnc(C)c(-c3cc(OCCO)nc(-c4ccnc(NC(=O)OC)c4)c3)c2)C1 [Example 152] | > 1000 | 100 to 500 | ≤ 100 | 1000 to 10000
Cc1ncc(NC(=O)NCCC2(C)CC2)cc1-c1cc(OCCO)nc(-c2ccnc(NC(=O)C3CC3)c2)c1 [Example 113] | 500 to 1000 | ≤ 100 | ≤ 100 | 100 to 500
